The results in this text go back to PubChem BioAssay (NCI).

Molecules are shown by their SMILES.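 96-well plates; 48 h exposure; 5 concentrations. Endpoints by linear interpolation between flanking doses. Not reached: highest tested concentration assigned. TGI is the concentration that stops growth completely.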 Where a SMILES comes first, the peptide text is derived from it. [ ]: non-standard residue; d: D form. The star is where a group is joined. ξ: configuration not given here. NMeF = CN[C@@H](Cc1ccccc1)C(=O)O; ξNMeV = CNC(C(=O)O)C(C)C; Boc = CC(C)(C)OC(=O)*; OBn = c1ccc(CO*)cc1 Some results are limits rather than exact numbers.

Usually TGI stands for the concentration at which net growth stops. Low readings indicate more potent growth arrest, high ones less potent growth arrest.

Common to all, as to test: DTP human tumour cell line panel, 48 h
The subject of assay [1] is ACHN renal.
For assay [2], the system named is COLO 205 colon.
For assay [3], the system named is HCT-116 colon.
Assay [4] deals with HCT-15 colon.
Assay [5] relates to HOP-62 NSCLC.
In assay [6] the test system is LOX IMVI melanoma.
In assay [7] the test system is MALME-3M melanoma.
In assay [8] the test system is MOLT-4 leukemia.
The subject of assay [9] is NCI-H23 lung.
Assay [10] deals with OVCAR-4 ovarian.
The subject of assay [11] is U251 CNS.
Assay [12] has as its system HT29 colon.
Assay [13] relates to IGROV1 ovarian.
For assay [14], the system named is SF-295 CNS.
The test system of assay [15] is SK-OV-3 ovarian.
Assay [16] relates to MDA-MB-435.
The subject of assay [17] is PC-3 prostate.
Assay [18] has as its system MCF7 breast.
For assay [19], the system named is MDA-MB-231 breast.

Regarding `CC(C)OP(=O)(OC(C)C)/C(=N/N)NNc1ccc([N+](=O)[O-])cc1`, the TGI in [1], in assay [2], in assay [3], in assay [4], in assay [5] and in assay [6] was > 100 µM in each case. Moreover, the TGI in assay [7], in [8], in [9], in assay [10] and in assay [11] was > 100 µM throughout.

Regarding `COc1ccc([N-]/C(=N\n2c(=O)c(C)nn(C)c2=S)N(c2ccc(OC)cc2)c2nn3c(=O)c(C)n[n+](C)c3s2)cc1`, the TGI in assay [1], in [2], in assay [3], in assay [4], in assay [5] and in assay [12] was > 100 µM each time. Moreover, the TGI in assay [13], in assay [6], in [8], in assay [9], in assay [10] and in assay [14] was > 100 µM in each case. For the same molecule, the TGI in assay [11] is > 100 µM.

As for `CCOc1ccc(N=Nc2ccc3oc(=O)c(C(=O)Nc4ccc(OC)cc4)cc3c2)cc1`, the TGI in [2] is > 100 µM; in assay [3] it was 26.2 µM; in assay [4], > 100 µM; in assay [5] it was 63.6 µM; in [12], > 100 µM; in assay [13], > 100 µM. Moreover, the TGI in assay [6] is 55.6 µM; in [7] it was > 100 µM; in [8] it was 44.4 µM; in assay [9], 56.9 µM; in assay [10], 52.9 µM; in [14], > 100 µM. Moreover, the TGI stood at 84.8 µM in assay [15] and 61.1 µM in assay [11].

As to `COc1cc(C(C)c2cc3c(cc2OCCCCOc2cc4c(cc2C(C)c2cc(OC)c(OC)c(OC)c2)OCO4)OCO3)cc(OC)c1OC` (configuration not stated), the TGI in [1], in assay [2], in assay [3], in assay [4], in [5] and in assay [12] was > 100 µM each time. Moreover, the TGI in assay [13], in [6], in assay [7], in [8], in assay [9] and in assay [10] was > 100 µM each time. Besides, the results for the TGI in [14], in [15] and in assay [11] were 91.3 µM, 91.8 µM and > 100 µM, respectively.

For `CC(C)c1cccc(C(C)C)c1NC(=O)C(=O)C(C(=O)c1ccc2ccccc2c1)C1OC(=O)c2ccccc21` (configuration not stated), the TGI in assay [1], in assay [2], in assay [3], in assay [4], in [5] and in [12] was > 100 µM each time. The TGI in assay [13], in assay [6], in assay [7], in [8], in assay [9] and in assay [10] was > 100 µM in each case. The TGI in [14], in [15] and in [11] was > 100 µM throughout.

For the molecule `O=C1c2nn(-c3ccccc3)nc2C(c2ccccc2)N1c1ccccc1` (configuration not stated), the TGI was > 100 µM in assay [1]; > 100 µM in assay [2]; > 100 µM in assay [3]; > 100 µM in assay [4]; 96.6 µM in assay [5]; > 100 µM in [12]. Moreover, the TGI in assay [13], in assay [6], in [7], in [8], in assay [9] and in assay [10] was > 100 µM each time. Moreover, the TGI in [14] and in assay [11] was > 100 µM in each case.

For the molecule `COc1ccc(C2=NN(c3ccccc3)C(c3cc4cc(Br)ccc4nc3Cl)C2)cc1` (configuration not stated), the TGI in assay [2], in [3], in assay [4], in assay [5], in [12] and in [13] was > 25 µM throughout. The TGI in assay [6], in [7], in assay [16], in assay [8], in assay [9] and in assay [10] was > 25 µM each time. Further, the TGI in assay [17], in [14] and in [15] was > 25 µM throughout.

As to `O=C1C2CCC(C2)C12CC1(c3ccccc3)C(=O)c3ccccc3N1O2` (configuration not stated), the TGI in assay [1], in assay [2], in [3], in [4], in [5] and in assay [12] was > 100 µM in each case. For the same molecule, the TGI in assay [13], in assay [7], in [8], in assay [9], in assay [10] and in assay [14] was > 100 µM throughout. For the same molecule, the TGI in assay [15] and in assay [11] was > 100 µM in each case.

On to `COc1ccc2c(c1)nc1n2C(c2c(F)cccc2Cl)SC1` (configuration not stated), for which the TGI in [1] was > 82.9 µM; in assay [2], > 54.9 µM; in [3], > 37 µM; in assay [4] it was > 37.2 µM; in assay [5], > 44.6 µM; in [12], > 100 µM. Besides, the TGI in assay [13] is > 100 µM; in [6], > 61.6 µM; in assay [7] it was 5.43 µM; in assay [18], > 34.8 µM; in [19] it was 27.9 µM; in assay [8], > 41.4 µM. Also, the total growth inhibition concentration (TGI) in assay [9] is > 35 µM; in assay [10], > 100 µM; in assay [17] it was > 51.6 µM; in [14], > 24.8 µM; in assay [15] it was > 38.1 µM; in assay [11] it was > 35.4 µM.

On to `COC(=O)N/N=C/c1oc(-c2ccccc2)c(-c2ccccc2)c1[N+](=O)[O-]`, for which the TGI in assay [1], in [2], in [3], in assay [4], in [5] and in assay [12] was > 100 µM in each case. In addition, the TGI in [13], in assay [6], in assay [7], in [8], in [9] and in [10] was > 100 µM each time. Also, the TGI in assay [14], in assay [15] and in assay [11] was > 100 µM each time.

Turning to `CC(C)C(C(=O)N1CCC[C@@H]1C(=O)OCc1ccccc1)N(C)C(=O)C(C(C)C)N(C)C(=O)[C@H](Cc1ccccc1)N(C)C(=O)[C@H](NC(=O)OC(C)(C)C)C(C)C` (some centres not stated) (Boc-[dV][NMeF][ξNMeV][ξNMeV][dP]-OBn), the TGI in assay [1], in assay [2], in [3], in assay [4], in [5] and in [12] was > 100 µM throughout. The TGI in assay [13], in [6], in [7], in assay [8], in assay [9] and in assay [10] was > 100 µM in each case. For the same molecule, the TGI in assay [14], in [15] and in [11] was > 100 µM in each case.

`CC(C)C(=O)/C=C/c1ccc(Cl)cc1`: the TGI in [1] was 28.5 µM; in assay [2] it was 59.9 µM; in assay [3], 11.5 µM; in assay [12], 31.7 µM; in [13], 46.3 µM; in assay [6], 22.2 µM. Further, the TGI in [8] is 55.9 µM; in [9], 44.7 µM; in [10], 52.3 µM; in assay [14], 27.8 µM; in assay [15], > 100 µM; in assay [11], 25.5 µM.

Consider `NC(=S)N1N=C2c3ccccc3CC[C@H]2[C@@H]1c1cccs1`, for which the TGI is > 100 µM in assay [1]; 40 µM in assay [2]; > 100 µM in assay [3]; > 100 µM in assay [4]; > 100 µM in assay [5]; 73.3 µM in assay [12]. The TGI in [13] is > 100 µM; in [6], > 100 µM; in [7] it was 80.2 µM; in assay [8], 94.5 µM; in assay [9] it was 87.9 µM; in [10] it was > 100 µM. The TGI was 58.1 µM in [14], > 100 µM in assay [15] and > 100 µM in [11].

Consider `COc1ccc(N[C@H](CS(=O)c2ccc(C)cc2)C(F)(F)C(F)(F)F)cc1` (some centres not stated), for which the TGI in [1], in [2], in assay [3], in assay [4], in assay [5] and in assay [12] was > 100 µM in each case. In addition, the TGI in assay [13], in assay [6], in assay [7], in assay [18], in assay [16] and in assay [8] was > 100 µM throughout. Besides, the TGI in [9], in assay [10], in [14], in assay [15] and in [11] was > 100 µM in each case.

Consider `COC(=O)/C=C1/N=C(N(C)/N=C/c2ccccc2)NC1=O`, for which the TGI in assay [2], in assay [3], in assay [4], in [5], in assay [12] and in [13] was > 100 µM each time. In addition, the TGI in assay [6], in [7], in assay [18], in assay [19], in assay [8] and in assay [9] was > 100 µM each time. The TGI in [10], in assay [17], in assay [14] and in assay [15] was > 100 µM in each case.

In the case of `CC1(C)C2CCC3(OCCO3)C1C1OC12` (configuration not stated), the TGI in [1], in assay [2], in assay [3], in [4], in [12] and in [6] was > 100 µM each time. Besides, the TGI in assay [7], in [8], in assay [9], in assay [10], in assay [14] and in assay [15] was > 100 µM each time. For the same molecule, the TGI in assay [11] was > 100 µM.

Turning to `Cc1ccc2[nH]c3[nH]c(=O)[nH]c(=O)c3c2c1`, the TGI in [1], in [2], in [3], in assay [4], in assay [5] and in [12] was > 100 µM throughout. The TGI in assay [13], in [6], in assay [7], in [18], in assay [16] and in assay [8] was > 100 µM throughout. For the same molecule, the TGI in assay [9], in assay [14] and in assay [15] was > 100 µM in each case.

Turning to `O=P1(Oc2ccc(Cl)cc2)OCCS1` (configuration not stated), the TGI in [1], in [2], in assay [3], in assay [4], in assay [5] and in assay [12] was > 100 µM throughout. The TGI in [13], in assay [6], in assay [7], in [19], in [9] and in assay [17] was > 100 µM throughout. Also, the TGI in assay [14], in assay [15] and in assay [11] was > 100 µM throughout.
